Earlier results in US7399860B2, “Manufacture of polyglutamate-therapeutic agent conjugates” (Cell Therapeutics Inc., priority 1999, dated 2008).

System: tumor
Settings: tumor-bearing hosts; U.S. Pat. No. 5,977,163; Li et al. 1998

## polyglutamic acid-paclitaxel conjugate
  efficacy compared with the unconjugated form of the drug: increased efficacy
